Laboratory results as given in US6376498B1, “Pharmaceutical, cosmetic and/or food composition with antioxidant properties” (Universite Catholique de Louvain, priority 1997, dated 2002).

What was measured:
[1] = Stability towards oxygen (powder and in aqueous and organic solvents; HPLC and TLC analysis); assay type: physicochemical
From the text: In fact, this molecule is not changed by remaining in an aqueous solvent exposed to air for several days.

rat hepatocytes [2] = assay: Toxicity on primary cultures of rat hepatocytes (24 h, total proteins, Bradford method); assay type: cell-based; settings: 1.3×10^−5 to 5×10^−4 M CLM
Procedure: (§1) Coetenteramine was applied to primary cultures of rat hepatocytes cultured in microplates (20,000 cells per well, 200 μl ). The doses of CLM ranged from 1.3×10^−5 to 5×10^−4 M. After a period of 24 hours, their survival was evaluated by measuring the contents of total proteins in each well (Bradford method). […] Similar results were obtained on human fibroblasts (MRC-5) and human intestinal cells (CACO2).

[3] = system: human fibroblasts (MRC-5); assay: Toxicity on human fibroblasts (MRC-5); assay type: cell-based
Procedure: as §1

[4] = system: human intestinal cells (CACO2); assay: Toxicity on human intestinal cells (CACO2); assay type: cell-based
Procedure: as §1

[5] = system: low-density lipoproteins (LDL); assay: In vitro oxidation of LDL induced by AAPH (joint dienes, absorbance at 234 nm); assay type: biochemical; settings: increasing concentrations of CLM, 37° C.
From the text: (§2) Oxidation of the polyunsaturated fatty acids of LDL is accompanied by the formation of joint dienes, which have a maximum absorbance at 234 nm. These joint dienes result from rearrangement of the double bonds of polyunsaturated fatty acids following removal of a […] hydrogen. The increase in the absorption of joint dienes can be measured directly in solution without resorting to extraction of the lipids. A latency phase during which few dienes are produced, a propagation phase during which the absorbance at 234 nm increases rapidly to reach a plateau and a decomposition phase where the aldehydes formed also absorb in the region of 210-240 nm, thus producing a new increase in the absorbance at 234 nm, are observed in succession. Measurement of the conjugated dienes currently seems to be the best indicator of the oxidizability of LDL if pure LDL preparations are available (Esterbauer et al. (1989)). […]
(§3) To measure the joint dienes, a solution of LDL (final concentration of 50 μg protein/ml PBS buffer, pH 7.4) is incubated in the presence of 5 μM copper or […] and in the absence or in the presence of varying concentrations of CLM in a quartz cell with an optical path of 1 cm. The absorbances at 234 nm of various samples are measured as a function of time on a UV-visible spectrophotometer (DU-8, Beckman). […]

[6] = system: human low-density lipoproteins; assay: In vitro oxidation of LDL by copper (joint dienes at 234 nm; TBARS); assay type: biochemical
From the text: as §2, §3

hepatocytes = assay: Protection of hepatocytes subjected to nitrofurantoin (MTT survival); assay type: cell-based, rat; settings: 3×10^−4 M NF for 6 hours, 5×10^−5 M CLM, MTT method, % of the controls
Procedure: (§4) Primary cultures of hepatocytes were subjected to the action of tert-butyl hydroperoxide (t-BHP) and nitrofurantoin (NF). The action of t-BHF is associated with its direct oxidizing power, while the action of NF results from the production of superoxide anions during its metabolization by the cytochrome P450 of cells.
FIG. 4 illustrates the survival of hepatocytes subjected to the action of 3×10^−4 M NF for 6 hours. At the end of this treatment, the survival (estimated by the MTT method) was 18% in the control groups. If CLM is added to the culture medium, the survival of the hepatocytes increases regularly, to reach 70% of the controls at 5×10^−5 M CLM.

fibroblasts = assay: Resistance of fibroblasts subjected to t-BHP (MTT cytotoxicity curve); assay type: cell-based; settings: 10^−5 M CLM, MTT test
From the text: FIG. 5 illustrates the increase in the resistance of fibroblasts subjected to the action of t-BHP by means of 10^−5 M CLM.

rat hepatocytes [7] = assay: Protection of hepatocytes treated with t-BHP (LDH release, mortality); assay type: cell-based
Procedure: as §4
The mortality, which is 75% in the controls, reaches only a few % in the presence of 50 μM CLM.

Question: What does the source list for `Nc1ncc(-c2ccc(O)cc2)nc1Cc1ccccc1` [Coelenteramine]?
Answer: degradation product identified by HPLC and TLC ([1]; aqueous solvent exposed to air for several days): no degradation product; stability towards oxygen ([1]; powder and after solubilization in aqueous and organic solvents): excellent stability towards oxygen; toxicity (percentage survival of controls) (rat hepatocytes [2]): not at all toxic; toxicity [3]: absence of toxicity; toxicity [4]: absence of toxicity; appearance of joint dienes in the oxidation of LDL by AAPH [5]: significant slowing down in the appearance of joint dienes; protective action on LDL with respect to oxidation by copper ([6]; 5 μM copper, 30° C.): significant protective action; appearance of TBARS (MDA) in the oxidation of LDL ([6]; human LDL oxidized by Cu2+, as a function of time): delay in the appearance of TBARS; survival of hepatocytes (hepatocytes): 70%; cytotoxicity curve of t-BHP (fibroblasts): significant displacement of the cytotoxicity curve; mortality (rat hepatocytes [7]; 50 μM CLM): only a few %; release of lactate dehydrogenase (LDH) (rat hepatocytes [7]; CLM 10 and 50 μM): reduction in the release of lactate dehydrogenase
